Data published in patent US10844032B2, “Substituted benzofuran, benzothiophene and indole Mcl-1 inhibitors” (Vanderbilt University, priority 2012, dated 2020).

Target: recombinant Mcl-1 (residues 172-327) (Homo sapiens (Human), UniProt Q07820)
Test: Bak peptide fluorescence polarization anisotropy competition assay, Mcl-1
Assay type: binding
Settings: Table 2, Ki range; FITC-Bak peptide 10 nM, Mcl-1 14 nM; read-out: Ki for inhibition of Mcl-1

Sequence of recombinant Mcl-1 (residues 172-327) (Q07820 172-327): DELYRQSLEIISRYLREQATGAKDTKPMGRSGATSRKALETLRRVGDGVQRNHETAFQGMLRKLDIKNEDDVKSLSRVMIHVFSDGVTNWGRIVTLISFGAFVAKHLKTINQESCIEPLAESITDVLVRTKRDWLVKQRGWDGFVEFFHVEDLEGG

Structure (SMILES)	Ki [nM]
Cc1cc(OCCCc2c(C(=O)NS(=O)(=O)CCNC(=O)c3cccn3C)[nH]c3ccccc23)cc(C)c1Cl [Example 170, 3-(3-(4-chloro-3,5-dimethylphenoxy)propyl)-N-((2-(1-methyl-1H-pyrrole-2-carboxamido)ethyl)sulfonyl)-1H-indole-2-carboxamide]	≤ 100
Cc1cc2nccn2cc1-c1cccc2c(CCCOc3cc(C)c(Cl)c(C)c3)c(C(=O)NS(=O)(=O)c3ccccc3)[nH]c12 [Example 299, 3-(3-(4-chloro-3,5-dimethylphenoxy)propyl)-7-(7-methylimidazo[1,2-a]pyridin-6-yl)-N-(phenylsulfonyl)-1H-indole-2-carboxamide]	≤ 100
Cc1cc(OCCCc2c(C(=O)NS(C)(=O)=O)[nH]c3cccc(Cl)c23)ccc1Cl [Example 50, 4-chloro-3-(3-(4-chloro-3-methylphenoxy)propyl)-N-(methylsulfonyl)-1H-indole-2-carboxamide]	≤ 100
Cc1cc(OCCCc2c(C(=O)NS(=O)(=O)c3ccc(C(=O)O)o3)[nH]c3cc(Cl)ccc23)cc(C)c1Cl [Example 261]	≤ 100
Cc1cc(OCCCc2c(C(=O)NS(=O)(=O)c3ccccc3)[nH]c3c(-c4c(C)n[nH]c4C)cccc23)cc(C)c1Cl [Example 305, 3-(3-(4-chloro-3,5-dimethylphenoxy)propyl)-7-(3,5-dimethyl-1H-pyrazol-4-yl)-N-(phenylsulfonyl)-1H-indole-2-carboxamide]	≤ 100
CC(=O)N1CCN(c2ccc(OCc3nn(C)c(C)c3-c3cccc4c(CCCOc5cc(C)c(Cl)c(C)c5)c(C(=O)NS(=O)(=O)c5ccccc5)n(Cc5cccnc5)c34)cc2)CC1 [Example 124, 7-(3-((4-(4-acetylpiperazin-1-yl)phenoxy)methyl)-1,5-dimethyl-1H-pyrazol-4-yl)-3-(3-(4-chloro-3,5-dimethylphenoxy)propyl)-N-(phenylsulfonyl)-1-(pyridin-3-ylmethyl)-1H-indole-2-carboxamide]	≤ 100
Cc1cc(OCCCc2c(C(=O)NS(=O)(=O)c3ccccc3)[nH]c3c(-c4ccnn4C)cccc23)cc(C)c1Cl [Example 100, 3-(3-(4-chloro-3,5-dimethylphenoxy)propyl)-7-(1-methyl-1H-pyrazol-5-yl)-N-(phenylsulfonyl)-1H-indole-2-carboxamide]	≤ 100

Same assay, conditions: read-out: Ki for inhibition of Mcl-1

Structure (SMILES)	Ki [nM]
Cc1cc(OCCCc2c(C(=O)NS(=O)(=O)CCNS(=O)(=O)c3ccc(Cl)c(Cl)c3)[nH]c3ccccc23)cc(C)c1Cl [Example 148, 3-(3-(4-chloro-3,5-dimethylphenoxy)propyl)-N-((2-(3,4-dichlorophenylsulfonamido)ethyl)sulfonyl)-1H-indole-2-carboxamide]	101 to 299
Cc1cc(OCCCc2c(C(=O)NS(=O)(=O)CCNC(=O)c3cc(Br)no3)[nH]c3ccccc23)cc(C)c1Cl [Example 185, 3-bromo-N-(2-(N-(3-(3-(4-chloro-3,5-dimethylphenoxy)propyl)-1H-indole-2-carbonyl)sulfamoyl)ethyl)isoxazole-5-carboxamide]	501 to 999
Cc1cc(OCCCc2c(C(=O)NS(=O)(=O)CCNC(=O)c3c(C)nn(C)c3C)[nH]c3ccccc23)cc(C)c1Cl [Example 183, 3-(3-(4-chloro-3,5-dimethylphenoxy)propyl)-N-((2-(1,3,5-trimethyl-1H-pyrazole-4-carboxamido)ethyl)sulfonyl)-1H-indole-2-carboxamide]	1000 to 9990
CC(=O)NCCS(=O)(=O)NC(=O)c1[nH]c2ccccc2c1CCCOc1cc(C)c(Cl)c(C)c1 [Example 198, N-((2-acetamidoethyl)sulfonyl)-3-(3-(4-chloro-3,5-dimethylphenoxy)propyl)-1H-indole-2-carboxamide]	501 to 999
Cc1cc(OCCCc2c(C(=O)NS(=O)(=O)CCNC(=O)c3cc(C)n(C4CC4)c3C)[nH]c3ccccc23)cc(C)c1Cl [Example 193, 3-(3-(4-chloro-3,5-dimethylphenoxy)propyl)-N-((2-(1-cyclopropyl-2,5-dimethyl-1H-pyrrole-3-carboxamido)ethyl)sulfonyl)-1H-indole-2-carboxamide]	101 to 299
Cc1ccccc1Cn1cccc1C(=O)NCCS(=O)(=O)NC(=O)c1[nH]c2cc(Cl)ccc2c1CCCOc1cc(C)c(Cl)c(C)c1 [Example 244, 6-chloro-3-(3-(4-chloro-3,5-dimethylphenoxy)propyl)-N-((2-(1-(2-methylbenzyl)-1H-pyrrole-2-carboxamido)ethyl)sulfonyl)-1H-indole-2-carboxamide]	301 to 500
COc1ccc(S(=O)(=O)NC(=O)c2[nH]c3ccccc3c2CCCOc2cc(C)c(Cl)c(C)c2)c(OC)c1 [Example 138, 3-(3-(4-chloro-3,5-dimethylphenoxy)propyl)-N-((2,4-dimethoxyphenyl)sulfonyl)-1H-indole-2-carboxamide]	301 to 500
Cc1cc(OCCCc2c(C(=O)NS(=O)(=O)CCNC(=O)C3CCCCC3)[nH]c3cccc(Cl)c23)cc(C)c1Cl [Example 208, 4-chloro-3-(3-(4-chloro-3,5-dimethylphenoxy)propyl)-N-((2-(cyclohexanecarboxamido)ethyl)sulfonyl)-1H-indole-2-carboxamide]	301 to 500
Cc1cc(OCCCc2c(C(=O)NS(=O)(=O)CCNC(=O)c3ccoc3C)[nH]c3cc(Cl)ccc23)cc(C)c1Cl [Example 227, 6-chloro-3-(3-(4-chloro-3,5-dimethylphenoxy)propyl)-N-((2-(2-methylfuran-3-carboxamido)ethyl)sulfonyl)-1H-indole-2-carboxamide]	101 to 299
COc1ccc(Cn2cccc2C(=O)NCCS(=O)(=O)NC(=O)c2[nH]c3cc(Cl)ccc3c2CCCOc2cc(C)c(Cl)c(C)c2)cc1 [Example 249, 6-chloro-3-(3-(4-chloro-3,5-dimethylphenoxy)propyl)-N-((2-(1-(4-methoxybenzyl)-1H-pyrrole-2-carboxamido)ethyl)sulfonyl)-1H-indole-2-carboxamide]	101 to 299
COc1cccc(Cn2cccc2C(=O)NCCS(=O)(=O)NC(=O)c2[nH]c3cc(Cl)ccc3c2CCCOc2cc(C)c(Cl)c(C)c2)c1 [Example 247, 6-chloro-3-(3-(4-chloro-3,5-dimethylphenoxy)propyl)-N-((2-(1-(3-methoxybenzyl)-1H-pyrrole-2-carboxamido)ethyl)sulfonyl)-1H-indole-2-carboxamide]	101 to 299
CS(=O)(=O)NC(=O)c1[nH]c2ccccc2c1CCCOc1ccccc1 [Example 30, N-(methylsulfonyl)-3-(3-phenoxypropyl)-1H-indole-2-carboxamide]	10000 to 50000
Cc1cc(OCCCc2c(C(=O)NS(=O)(=O)c3cccnc3)[nH]c3ccccc23)cc(C)c1Cl [Example 133, 3-(3-(4-chloro-3,5-dimethylphenoxy)propyl)-N-(pyridin-3-ylsulfonyl)-1H-indole-2-carboxamide]	301 to 500
Cc1cc(OCCCc2c(C(=O)NS(C)(=O)=O)sc3ccccc23)cc(C)c1Cl [Example 68, 3-(3-(4-chloro-3,5-dimethylphenoxy)propyl)-N-(methylsulfonyl)benzo[b]thiophene-2-carboxamide]	1000 to 9990
Cc1cc(OCCCc2c(C(=O)NS(=O)(=O)CCNC(=O)c3cncs3)[nH]c3ccccc23)cc(C)c1Cl [Example 189, N-(2-(N-(3-(3-(4-chloro-3,5-dimethylphenoxy)propyl)-1H-indole-2-carbonyl)sulfamoyl)ethyl)thiazole-5-carboxamide]	501 to 999
CCc1cc(OCCCc2c(C(=O)NS(C)(=O)=O)[nH]c3ccccc23)ccc1Cl [Example 44, 3-(3-(4-chloro-3-ethylphenoxy)propyl)-N-(methylsulfonyl)-1H-indole-2-carboxamide]	1000 to 9990
Cc1cc(OCCCc2c(C(=O)NS(=O)(=O)CCNC(=O)c3cc(C)n(Cc4ccncc4)c3C)[nH]c3ccccc23)cc(C)c1Cl [Example 195, 3-(3-(4-chloro-3,5-dimethylphenoxy)propyl)-N-((2-(2,5-dimethyl-1-(pyridin-4-ylmethyl)-1H-pyrrole-3-carboxamido)ethyl)sulfonyl)-1H-indole-2-carboxamide]	101 to 299
Cc1cc(OCCCc2c(C(=O)NS(=O)(=O)CCNC(=O)c3ccoc3C)[nH]c3ccccc23)cc(C)c1Cl [Example 151, 3-(3-(4-chloro-3,5-dimethylphenoxy)propyl)-N-((2-(2-methylfuran-3-carboxamido)ethyl)sulfonyl)-1H-indole-2-carboxamide]	101 to 299
Cc1cc(OCCCc2c(C(=O)NS(=O)(=O)CCNC(=O)c3cccn3Cc3cccc(Cl)c3)[nH]c3cc(Cl)ccc23)cc(C)c1Cl [Example 243, 6-chloro-3-(3-(4-chloro-3,5-dimethylphenoxy)propyl)-N-((2-(1-(3-chlorobenzyl)-1H-pyrrole-2-carboxamido)ethyl)sulfonyl)-1H-indole-2-carboxamide]	301 to 500
Cc1cc(OCCCc2c(C(=O)NS(=O)(=O)CCNC(=O)c3cc(F)cc(F)n3)[nH]c3ccccc23)cc(C)c1Cl [Example 191, 3-(3-(4-chloro-3,5-dimethylphenoxy)propyl)-N-((2-(4,6-difluoropicolinamido)ethyl)sulfonyl)-1H-indole-2-carboxamide]	1000 to 9990
Cc1cc(OCCCc2c(C(=O)NS(=O)(=O)CCNC(=O)c3cncn3C)[nH]c3ccccc23)cc(C)c1Cl [Example 187, 3-(3-(4-chloro-3,5-dimethylphenoxy)propyl)-N-((2-(1-methyl-1H-imidazole-5-carboxamido)ethyl)sulfonyl)-1H-indole-2-carboxamide]	1000 to 9990
Cc1cc(OCCCc2c(C(=O)NS(=O)(=O)c3ccccc3)n(Cc3cccnc3)c3cc(Cl)ccc23)cc(C)c1Cl [Example 272, 6-chloro-3-(3-(4-chloro-3,5-dimethylphenoxy)propyl)-N-(phenylsulfonyl)-1-(pyridin-3-ylmethyl)-1H-indole-2-carboxamide]	101 to 299
Cc1cc(OCCCc2c(C(=O)NS(=O)(=O)CC3CCN(C(=O)OCc4ccccc4)CC3)[nH]c3cc(Cl)ccc23)cc(C)c1Cl [Example 209, benzyl 4-((N-(6-chloro-3-(3-(4-chloro-3,5-dimethylphenoxy)propyl)-1H-indole-2-carbonyl)sulfamoyl)methyl)piperidine-1-carboxylate]	301 to 500
